Measurements: article PMC2778288 (Journal of medicinal chemistry, 2008)

Test system: primary normal human bladder epithelial cells
Assay: 3H-thymidine incorporation
Format: cell-based
Details: not given

| Substance | antiproliferative activity relative to as-APF 1 (in words) | loss of potency/activity compared to parent as-APF 1 (orders of magnitude) |
| --- | --- | --- |
| Galβ1-3GalNAcα-O-TV-Pip-AAVVVA [compound 15] | complete retention |  |
| Galβ1-3GalNAcα-O-TV-Hyp-AAVVVA [compound 12] |  | 2–3 orders of magnitude |
| Galβ1-3GalNAcα-O-TVPAAAAAA [compound 25] | decreased as-APF activity |  |
| Galβ1-3GalNAcα-O-SVPAAVVVA [compound 3] |  | 4 orders of magnitude |
| Galβ1-3GalNAcα-O-TVPAAVVVAK(Ac) [compound 35] | some of which was restored |  |
| Galβ1-3GalNAcα-O-SLPAAVVVA [compound 2] |  | 2 orders of magnitude |
| Galβ1-3GalNAcα-O-TLPAAVVVA [compound 4] | inactivation |  |
| Galβ1-3GalNAcα-O-TLS(^ΨMe,Mepro)-AAVVVA [compound 9] | completely abolished activity |  |
| Galβ1-3GalNAcα-O-TVPAAGGGA [compound 26] | complete inactivation |  |
| Galβ1-3GalNAcα-O-TV-Aze-AAVVVA [compound 10] | completely abolished activity |  |
| Galβ1-3GalNAcα-O-TVPAAVVVAK [compound 33] | complete loss of activity |  |
| Galβ1-3GalNAcα-O-TVPAAVVVAK(dansyl) [compound 31] | no loss of activity |  |

Test system: primary normal human bladder epithelial cells
Assay: not given
Details: biological antiproliferation assays; cited from earlier work

| Substance | antiproliferative activity (previously determined, in words) |
| --- | --- |
| Neu5Acα2-3Galβ1-4GlcNAcαO-SLPAAVVVA | essentially equipotent |
| Neu5Acα2-3Galβ1-3GalNAcα-O-TVPAAVVVA [APF] | essentially equipotent |
| TVPAAVVVA [nonglycosylated nonapeptide] | completely inactive |
| Neu5Acα2-3Galβ1-4GlcNAcα-O-TVPAAVVVA | essentially equipotent |
| Galβ1-3GalNAcβ-O-TVPAAVVVA | completely inactive |
| Galβ1-4GlcNAcα-O-SLPAAVVVA | essentially equipotent |

Test system: normal bladder epithelial as well as cells derived from urothelial carcinomas
Assay: not given
Details: native and synthetic APF; cited from earlier work

| Substance | concentrations inhibiting proliferation |
| --- | --- |
| Neu5Acα2-3Galβ1-3GalNAcα-O-TVPAAVVVA [APF] | picomolar to low nanomolar |
